Results reported in ChEMBL document CHEMBL1131491, “Comparative binding energy analysis of HIV-1 protease inhibitors: incorporation of solvent effects and validation as a powerful tool in receptor-based drug design” (J Med Chem, 1998).

Molecular target: Human immunodeficiency virus type 1 protease (Human immunodeficiency virus 1, UniProt Q72874)
Experiment: Inhibitory activity against HIV-1 protease.

SMILES	IC50
CC(C)(C)OC(=O)N[C@@H](Cc1ccccc1)[C@@H](O)C[C@@H](Cc1ccccc1)C(=O)N[C@H]1c2ccccc2CC[C@H]1O	0.692 nM
CC(C)(C)OC(=O)N[C@@H](Cc1ccccc1)[C@@H](O)C[C@@H](Cc1ccccc1)C(=O)N[C@H]1C=CC[C@H]1O	9.55 nM
CC(C)(C)NC(=O)[C@@H]1C[C@@H]2CCCC[C@@H]2CN1C[C@@H](O)[C@H](Cc1ccccc1)NC(=O)OC(C)(C)C	3020 nM
C[C@@H](NC(=O)[C@H](Cc1ccccc1)C[C@H](O)[C@H](Cc1ccccc1)NC(=O)OC(C)(C)C)c1ccccc1	145 nM
CC(C)(C)OC(=O)N[C@@H](Cc1ccccc1)[C@@H](O)CC(=O)N[C@H]1c2ccccc2C[C@H]1O	562 nM
CC(C)(C)NC(=O)[C@@H]1C[C@@H]2CCCC[C@@H]2CN1C[C@@H](O)C[C@@H](Cc1ccccc1)C(=O)N[C@H]1c2ccccc2CC1O (some centres not stated)	7.59 nM
CC(C)(C)OC(=O)N[C@@H](Cc1ccccc1)[C@@H](O)C[C@@H](Cc1ccccc1)C(=O)N[C@H]1c2ccccc2OC[C@H]1O	0.178 nM
